Molecular target: T1, DYRK3 (Homo sapiens, UniProt O43781)
T1 construct: purchased Thermo Fisher Scientific (Life Technologies) SelectScreen
Test: SelectScreen Z'LYTE
Type: biochemical
Method in brief: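 SelectScreen broad panel; activity (Z'LYTE, Adapta) plus binding formats. ATP: Km app for CSF1R Z'LYTE; 10 for CAMK1 Adapta. Readout = % per kinase.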

T1 sequence (O43781 whole entry): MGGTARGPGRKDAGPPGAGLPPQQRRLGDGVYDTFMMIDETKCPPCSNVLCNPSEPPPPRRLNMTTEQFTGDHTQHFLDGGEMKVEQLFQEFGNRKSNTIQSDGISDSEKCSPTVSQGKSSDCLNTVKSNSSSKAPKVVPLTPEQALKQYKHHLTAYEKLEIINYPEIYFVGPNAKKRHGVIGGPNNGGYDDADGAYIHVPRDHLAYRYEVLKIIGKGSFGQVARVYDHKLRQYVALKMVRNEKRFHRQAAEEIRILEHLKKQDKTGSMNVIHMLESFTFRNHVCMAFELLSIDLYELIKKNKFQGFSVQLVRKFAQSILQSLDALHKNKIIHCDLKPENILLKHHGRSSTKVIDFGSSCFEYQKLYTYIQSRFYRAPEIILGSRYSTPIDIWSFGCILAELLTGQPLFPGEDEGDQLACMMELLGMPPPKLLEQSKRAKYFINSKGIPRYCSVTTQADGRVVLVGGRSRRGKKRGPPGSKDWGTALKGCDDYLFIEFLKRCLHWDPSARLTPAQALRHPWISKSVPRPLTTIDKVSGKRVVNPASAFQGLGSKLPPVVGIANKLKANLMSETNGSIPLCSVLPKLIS

CN(C(=O)CN1CCOCC1)c1ccc2sc3c(-c4cccc5c(=O)cc(N6CC7CCC(C6)O7)oc45)cccc3c2c1 [NU5455]
inhibition at 1 µM: 2.6%

— publication PMC6934184, “Selective DNA-PKcs inhibition extends the therapeutic index of localized radiotherapy and chemotherapy” (The Journal of Clinical Investigation, 2019)
